Test results reported in ChEMBL document CHEMBL6134928, “Novel Bicyclic DGK Inhibitors for Treating Metastatic Melanoma” (ACS Med Chem Lett, 2025).

What follows are molecules tested against Diacylglycerol kinase alpha (Homo sapiens, UniProt P23743) (assay: Inhibition of recombinant human DGKalpha using DLG as substrate preincubated with compound followed by substrate addition and measured after 90 mins in presence of ATP by ADP-Glo reagent based analysis).
Chain of Diacylglycerol kinase alpha (P23743 whole entry): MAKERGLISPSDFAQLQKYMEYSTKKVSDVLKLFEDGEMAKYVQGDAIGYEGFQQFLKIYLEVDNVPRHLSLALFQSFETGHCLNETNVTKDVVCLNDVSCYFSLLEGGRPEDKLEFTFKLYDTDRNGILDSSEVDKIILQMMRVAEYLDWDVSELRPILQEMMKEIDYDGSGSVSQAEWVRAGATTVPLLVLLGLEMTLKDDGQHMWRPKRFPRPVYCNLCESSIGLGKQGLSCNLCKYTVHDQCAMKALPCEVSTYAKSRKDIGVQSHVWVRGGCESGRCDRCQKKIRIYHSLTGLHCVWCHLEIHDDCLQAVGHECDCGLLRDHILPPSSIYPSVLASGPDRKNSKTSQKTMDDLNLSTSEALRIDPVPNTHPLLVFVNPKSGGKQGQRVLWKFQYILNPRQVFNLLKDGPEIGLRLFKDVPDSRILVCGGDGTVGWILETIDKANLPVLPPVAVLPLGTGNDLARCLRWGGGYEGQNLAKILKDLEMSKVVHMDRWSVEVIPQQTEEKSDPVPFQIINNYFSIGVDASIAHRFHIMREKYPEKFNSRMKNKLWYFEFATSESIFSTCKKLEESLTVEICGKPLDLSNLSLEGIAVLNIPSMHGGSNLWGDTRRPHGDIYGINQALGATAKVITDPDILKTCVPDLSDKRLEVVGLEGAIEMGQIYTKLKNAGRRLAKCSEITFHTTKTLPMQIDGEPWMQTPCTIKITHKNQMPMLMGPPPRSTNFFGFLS

SMILES | IC50 [µM]
C[C@@H]1CN(c2nc(=O)n(C)c3c2nnn3C[C@H]2CCCO2)[C@@H](C)CN1C(c1ccc(F)cc1)c1ccc(F)cc1 | ≤ 0.01
C[C@@H]1CN(c2nc(=O)n(C)c3c2ncn3CC2(O)CCC2)[C@@H](C)CN1C(c1ccc(Cl)cc1)C1CC(F)(F)C1 (stereo partly specified) | ≤ 0.01
C[C@@H]1CN(c2nc(=O)n(C)c3c2cnn3C)[C@@H](C)CN1C(c1ccc(F)cc1)c1ccc(F)cc1 | ≤ 0.01
C[C@@H]1CN(c2nc(=O)n(C)c3c2nnn3C[C@H]2CCCO2)[C@@H](C)CN1C(c1ccc(C(F)(F)F)cn1)c1ccc(C(F)(F)F)cn1 | ≤ 0.01
CC[C@@H]1CN(c2nc(=O)n(C)c3c2nc(C)n3C[C@@H]2CCCO2)[C@@H](C)CN1C(c1ccc(C(F)(F)F)cc1)C1CC(F)(F)C1 (stereo partly specified) | ≤ 0.01
Cc1nc2c(N3C[C@@H](C)N(C(c4ccc(F)cc4)c4ccc(F)cc4)C[C@@H]3C)nc(=O)[nH]c2n1C[C@@H]1CCCO1 | ≤ 0.01
